The target in the first test is human SGLT1 (Homo sapiens (Human), UniProt P13866). As to the kind of experiment: SGLT1 inhibitory activity: 14C-AMG uptake into CHO-K1 cell line stably expressing human SGLT1. The format is cell-based. As to conditions: 14C-AMG uptake, CHO-K1 cells expressing human SGLT1. Put shortly: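 CHO-K1 cells stably expressing human SGLT1 were pre-incubated 20 min in Na(−) buffer (pH 7.4). Test compound in Na(+) buffer with BSA was added with ¹⁴C-AMG (8 kBq) plus unlabelled AMG (2 mM in the added solution) for 1 h at 37 °C.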
human SGLT1, sequence (P13866 whole entry): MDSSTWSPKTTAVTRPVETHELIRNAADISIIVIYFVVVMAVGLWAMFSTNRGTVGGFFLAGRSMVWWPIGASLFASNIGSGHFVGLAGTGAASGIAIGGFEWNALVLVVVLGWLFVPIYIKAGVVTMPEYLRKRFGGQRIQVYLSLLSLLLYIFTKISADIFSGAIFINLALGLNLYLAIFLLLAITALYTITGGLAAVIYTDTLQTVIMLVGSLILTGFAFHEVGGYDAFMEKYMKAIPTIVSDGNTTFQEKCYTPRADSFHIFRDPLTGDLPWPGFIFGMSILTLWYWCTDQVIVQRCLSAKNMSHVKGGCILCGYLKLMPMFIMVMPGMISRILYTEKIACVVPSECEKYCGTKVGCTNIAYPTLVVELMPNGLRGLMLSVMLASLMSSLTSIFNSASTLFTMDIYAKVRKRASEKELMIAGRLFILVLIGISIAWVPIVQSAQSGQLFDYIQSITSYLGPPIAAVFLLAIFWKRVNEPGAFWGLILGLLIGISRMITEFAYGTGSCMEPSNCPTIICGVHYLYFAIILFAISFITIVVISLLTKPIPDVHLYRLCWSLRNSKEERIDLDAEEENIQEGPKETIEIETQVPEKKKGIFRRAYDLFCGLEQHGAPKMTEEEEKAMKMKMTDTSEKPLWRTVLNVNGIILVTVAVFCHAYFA
Turning to `C[C@H]1C(=O)NC[C@@H]1C(=O)Nc1cc(-c2cccc(C(C)(C)C)c2)n(C2CCOCC2)n1` [Example 178], it took 14 nM to reach half-maximal inhibition (IC50).

As to `CCC(F)(F)c1cccc(-c2cc(NC(=O)[C@H]3CNC(=O)[C@@H]3C)nn2C2CCOCC2)c1` [Example 179], 19 nM corresponded to half-maximal inhibition (IC50). The IC50 values of the last two molecules are within 1.5-fold of each other.

On to `CCC(F)(F)c1cccc(-c2cc(NC(=O)[C@H]3CNC(=O)C3)nn2-c2cccc(F)c2)c1` [Example 181], for which the IC50 (usually the concentration that gives 50% inhibition) came out at 4.3 nM.

`CCC(F)(F)c1cccc(-c2cc(NC(=O)[C@H]3CNC(=O)C3)nn2-c2ccccc2F)c1` [Example 182] registered an IC50 of 3.8 nM.

For `O=C1C[C@@H](C(=O)Nc2cc(-c3cccc(OC(F)(F)F)c3)n(-c3ccc(F)cc3F)n2)CN1` [Example 183], the IC50 was found to be 20100 nM. Against the preceding molecule, the IC50 is about 5300-fold higher.

In turn, `O=C1C[C@@H](C(=O)Nc2cc(-c3cccc(OC(F)(F)F)c3)n(C3CCOCC3)n2)CN1` [Example 187] had a half-maximal inhibitory concentration (IC50) of 42 nM.

`C[C@H]1C(=O)NC[C@@H]1C(=O)Nc1cc(-c2cccc(OC(F)(F)F)c2)n(C2CCOCC2)n1` [Example 188] yielded an IC50 of 23 nM.

For `O=C1C[C@@H](C(=O)Nc2cc(-c3cccc(OC(F)(F)F)c3)n(CCC(F)(F)F)n2)CN1` [Example 190], it took 130 nM to reach half-maximal inhibition (IC50). Against the preceding molecule, the IC50 is about 5.7-fold higher.

Take `C[C@H]1C(=O)NC[C@@H]1C(=O)Nc1cc(-c2cccc(OC(F)(F)F)c2)n(CCC(F)(F)F)n1` [Example 191]: the midpoint of inhibition, the IC50, lay at 54 nM.

Take `C[C@H]1C(=O)NC[C@@H]1C(=O)Nc1cc(-c2cccc(OC(F)(F)F)c2)n(-c2ccccc2Cl)n1` [Example 193]: half-maximal inhibition (IC50) required 1.3 nM. This IC50 lies about 42-fold lower than the previous one.

`C[C@H]1C(=O)NC[C@@H]1C(=O)Nc1cc(-c2cccc(C(C)(C)C)c2)n(-c2ccccc2Cl)n1` [Example 194] registered a half-maximal inhibitory concentration (IC50) of 0.7 nM.

`Cc1cc(F)ccc1-n1nc(NC(=O)[C@H]2CNC(=O)C2)cc1-c1cccc(OC(F)(F)F)c1` [Example 195]: the IC50 is 8.3 nM. Against the preceding molecule, the IC50 is about 12-fold higher.

`Cc1cc(F)ccc1-n1nc(NC(=O)[C@H]2CNC(=O)[C@@H]2C)cc1-c1cccc(OC(F)(F)F)c1` [Example 196] had a half-maximal inhibitory concentration (IC50) of 4.8 nM.

`O=C1C[C@@H](C(=O)Nc2cc(-c3cccc(OC(F)(F)F)c3)n(C3CCC(F)(F)CC3)n2)CN1` [Example 197] displayed an IC50 of 180 nM.

Consider `C[C@H]1C(=O)NC[C@@H]1C(=O)Nc1cc(-c2cccc(OC(F)(F)F)c2)n(C2CCC(F)(F)CC2)n1` [Example 198], for which the IC50 came to 67 nM.

Take `C[C@H]1C(=O)NC[C@@H]1C(=O)Nc1cc(-c2cccc(OC(F)(F)F)c2)n(CC2CCOCC2)n1` [Example 200]: the 50% inhibitory concentration (IC50) was found to be 120 nM.

Turning to `O=C1C[C@@H](C(=O)Nc2cc(-c3cccc(OC(F)(F)F)c3)n(CCC3CCOCC3)n2)CN1` [Example 201], the half-maximal inhibitory concentration (IC50) amounted to 93 nM.

`C[C@H]1C(=O)NC[C@@H]1C(=O)Nc1cc(-c2cccc(C(F)(F)F)c2)n(-c2ccc(F)cc2)n1` [Example 202] gave a half-inhibitory concentration (IC50) of 12 nM.

`C[C@H]1C(=O)NC[C@@H]1C(=O)Nc1cc(-c2cccc(C(F)(F)F)c2)n(-c2ccccc2Cl)n1` [Example 203] registered an IC50 of 1.4 nM. This IC50 is about 8.6-fold lower than that of the molecule before.

`O=C1C[C@@H](C(=O)Nc2cc(-c3cccc(C(F)(F)F)c3)n(-c3ccc(F)cc3)n2)CN1` [Example 204] showed a half-inhibitory concentration (IC50) of 18 nM.

Regarding `O=C1C[C@@H](C(=O)Nc2cc(-c3cccc(C(F)(F)F)c3)n(-c3ccccc3Cl)n2)CN1` [Example 205], the IC50 is 3.6 nM. Compared with the last molecule, the IC50 is about 5-fold lower.

`O=C1C[C@@H](C(=O)Nc2cc(-c3cccc(OCC(F)(F)F)c3)n(-c3cccc(F)c3)n2)CN1` [Example 206]: the half-maximal inhibitory concentration (IC50) stood at 4.8 nM.

`C[C@H]1C(=O)NC[C@@H]1C(=O)Nc1cc(-c2cccc(C(F)(F)F)c2)n(-c2ccccc2)n1` [Example 207] returned a 50% inhibitory concentration (IC50) of 4.7 nM.

As to `CCC(F)(F)c1cccc(-c2cc(NC(=O)[C@H]3CNC(=O)[C@@H]3C)nn2-c2ccccc2Cl)c1` [Example 208], the half-inhibitory concentration (IC50) was determined as 1.3 nM.

`C[C@H]1C(=O)NC[C@@H]1C(=O)Nc1cc(-c2cccc(C(F)(F)F)c2)n(-c2cccc(F)c2)n1` [Example 209] displayed an IC50 of 9.2 nM. Compared with the last molecule, the IC50 is about 7.1-fold higher.

`C[C@H]1C(=O)NC[C@@H]1C(=O)Nc1cc(-c2cccc(OCC(F)(F)F)c2)n(-c2ccccc2)n1` [Example 210] returned an IC50 of 5.9 nM. This IC50 is about 1.6-fold lower than that of the molecule before.

Regarding `O=C1C[C@@H](C(=O)Nc2cc(-c3cccc(OCC(F)(F)F)c3)n(-c3ccc(F)cc3)n2)CN1` [Example 211], the IC50 stood at 17 nM. This IC50 lies about 2.9-fold higher than the previous one.

The molecule `C[C@H]1C(=O)NC[C@@H]1C(=O)Nc1cc(-c2cccc(OCC(F)(F)F)c2)n(-c2ccc(F)cc2)n1` [Example 212] displayed a concentration for half-maximal inhibition (IC50) of 5.8 nM.

As for `O=C1C[C@@H](C(=O)Nc2cc(-c3cccc(C(F)(F)F)c3)n(-c3cccc(F)c3)n2)CN1` [Example 213], the IC50 is 14 nM.

In turn, `O=C1C[C@@H](C(=O)Nc2cc(-c3cccc(OCC(F)(F)F)c3)n(-c3ccccc3Cl)n2)CN1` [Example 214] gave a half-maximal inhibitory concentration (IC50) of 2.3 nM.

`C[C@H]1C(=O)NC[C@@H]1C(=O)Nc1cc(-c2cccc(OCC(F)(F)F)c2)n(-c2ccccc2Cl)n1` [Example 215] gave an IC50 of 1.4 nM.

The molecule `Cc1ccc(-n2nc(NC(=O)[C@H]3CNC(=O)C3)cc2-c2cccc(OCC(F)(F)F)c2)cc1` [Example 216] registered an IC50 of 8.7 nM.

`Cc1ccc(-n2nc(NC(=O)[C@H]3CNC(=O)[C@@H]3C)cc2-c2cccc(OCC(F)(F)F)c2)cc1` [Example 217] had an IC50 of 6.2 nM. This IC50 and that of the molecule before are within 1.5-fold of each other.

Take `C[C@H]1C(=O)NC[C@@H]1C(=O)Nc1cc(-c2cccc(OCC(F)(F)F)c2)n(-c2cccc(F)c2)n1` [Example 222]: half-maximal inhibition (IC50) required 4.1 nM.

`Cc1ccccc1-n1nc(NC(=O)[C@H]2CNC(=O)[C@@H]2C)cc1-c1cccc(OC(F)(F)F)c1` [Example 223] returned an IC50 of 2.3 nM.

With `Cc1ccccc1-n1nc(NC(=O)[C@H]2CNC(=O)C2)cc1-c1cccc(C(F)(F)F)c1` [Example 224], it took 6.3 nM to reach half-maximal inhibition (IC50).

For `Cc1ccccc1-n1nc(NC(=O)[C@H]2CNC(=O)[C@@H]2C)cc1-c1cccc(C(F)(F)F)c1` [Example 225], the 50% inhibitory concentration (IC50) was 3.9 nM.

In the case of `Cc1ccccc1-n1nc(NC(=O)[C@H]2CNC(=O)C2)cc1-c1cccc(OCC(F)(F)F)c1` [Example 226], half-maximal inhibition (IC50) required 3.3 nM. The IC50 values of the last two molecules are within 1.5-fold of each other.

`Cc1ccccc1-n1nc(NC(=O)[C@H]2CNC(=O)[C@@H]2C)cc1-c1cccc(OCC(F)(F)F)c1` [Example 227] gave an IC50 of 2.1 nM.

Turning to `O=C1C[C@@H](C(=O)Nc2cc(-c3cccc(C(F)(F)F)c3)n(-c3ccccc3F)n2)CN1` [Example 228], the half-maximal inhibitory concentration (IC50) was found to be 8.6 nM.

For the molecule `C[C@H]1C(=O)NC[C@@H]1C(=O)Nc1cc(-c2cccc(C(F)(F)F)c2)n(-c2ccccc2F)n1` [Example 229], the IC50 came to 3.1 nM.

`Cc1ccc(-n2nc(NC(=O)[C@H]3CNC(=O)C3)cc2-c2cccc(C(F)(F)F)c2)cc1` [Example 230] showed a concentration for half-maximal inhibition (IC50) of 12 nM.

`Cc1ccc(-n2nc(NC(=O)[C@H]3CNC(=O)[C@@H]3C)cc2-c2cccc(C(F)(F)F)c2)cc1` [Example 231] had a half-maximal inhibitory concentration (IC50) of 6.7 nM.

`C[C@H]1C(=O)NC[C@@H]1C(=O)Nc1cc(-c2cccc(OC(F)(F)F)c2)n(CCC2CCOCC2)n1` [Example 232] displayed a half-maximal inhibitory concentration (IC50) of 32 nM.

`Cc1ccc(-n2nc(NC(=O)[C@H]3CNC(=O)C3)cc2-c2cccc(OC(F)(F)F)c2)cc1` [Example 233] came in with an IC50 of 20 nM. This IC50 is about 1.6-fold lower than that of the molecule before.

In turn, `Cc1ccc(-n2nc(NC(=O)[C@H]3CNC(=O)[C@@H]3C)cc2-c2cccc(OC(F)(F)F)c2)cc1` [Example 234] displayed an IC50 of 7.4 nM.

Still in this test, the particulars now being: 14C-AMG uptake, CHO-K1 cells stably expressing human SGLT1.
For the molecule `C[C@@H](OCc1cc(F)cc(-c2cc(NC(=O)[C@@H]3CNC(=O)C3)nn2-c2ccccc2)c1)C(F)(F)F` [Example 235, (S)-5-oxopyrrolidine-3-carboxylic acid{5-[3-fluoro-5-((R)-2,2,2-trifluoro-1-methylethoxymethyl)phenyl]-1-phenyl-1H-pyrazol-3-yl}amide], the 50% inhibitory concentration (IC50) worked out at 3.4 nM.

`C[C@@H](OCc1cc(F)cc(-c2cc(NC(=O)[C@@H]3CNC(=O)C3)nn2-c2ccc(Cl)cc2)c1)C(F)(F)F` [Example 236, (S)-5-oxopyrrolidine-3-carboxylic acid{1-(4-chlorophenyl)-5-[3-fluoro-5-((R)-2,2,2-trifluoro-1-methylethoxymethyl)phenyl]-1H-pyrazol-3-yl}amide] came in with a concentration for half-maximal inhibition (IC50) of 5.35 nM.

In turn, `C[C@@H](OCc1cc(F)cc(-c2cc(NC(=O)[C@@H]3CNC(=O)C3)nn2-c2ccccc2F)c1)C(F)(F)F` [Example 237, (S)-5-oxopyrrolidine-3-carboxylic acid{1-(2-fluorophenyl)-5-[3-fluoro-5-((R)-2,2,2-trifluoro-1-methylethoxymethyl)phenyl]-1H-pyrazol-3-yl}amide] showed an IC50 of 3.85 nM.

The test is the same for the next values; noted with them: CHO-K1, at 0.03 uM.
Turning to `C[C@H]1C(=O)NC[C@@H]1C(=O)Nc1cc(-c2cccc(OC(F)(F)F)c2)n(-c2ccc(F)cc2F)n1` [Example 184], the inhibition (in general, the relative decrease from the control value, in per cent) at 0.03 µM amounted to 3%.

Staying with this test, now noted: CHO-K1, at 0.1 uM.
As to `C[C@@H]1C[C@@H](n2nc(NC(=O)[C@H]3CNC(=O)C3)cc2-c2cccc(OC(F)(F)F)c2)C[C@H](C)O1` [Example 218], the inhibition at 0.1 µM was determined as 26%.

For `C[C@@H]1C[C@H](n2nc(NC(=O)[C@H]3CNC(=O)C3)cc2-c2cccc(OC(F)(F)F)c2)C[C@H](C)O1` [Example 219], the inhibition at 0.1 µM was 20%.

For the molecule `C[C@@H]1C[C@@H](n2nc(NC(=O)[C@H]3CNC(=O)[C@@H]3C)cc2-c2cccc(OC(F)(F)F)c2)C[C@H](C)O1` [Example 220], the inhibition at 0.1 µM was 16%.

On to `C[C@@H]1C[C@H](n2nc(NC(=O)[C@H]3CNC(=O)[C@@H]3C)cc2-c2cccc(OC(F)(F)F)c2)C[C@H](C)O1` [Example 221], for which the inhibition at 0.1 µM was 15%.

Staying with this test, now noted: CHO-K1, at 0.3 uM.
Turning to `C[C@H]1C(=O)NC[C@@H]1C(=O)Nc1cc(-c2cccc(OC(F)(F)F)c2)n(-c2ccc(Cl)c(F)c2)n1` [Example 180], the inhibition at 0.3 µM is -10%.

As to `O=C1C[C@@H](C(=O)Nc2cc(-c3cccc(OC(F)(F)F)c3)n(-c3ccc(F)cc3Cl)n2)CN1` [Example 192], the inhibition at 0.3 µM stood at 6%.

In the case of `O=C1C[C@@H](C(=O)Nc2cc(-c3cccc(OC(F)(F)F)c3)n(CC3CCOCC3)n2)CN1` [Example 199], the inhibition at 0.3 µM worked out at 40%.
